Measured values from patent US12286439B2, “Inhibitors of ERK nuclear translocation” (Yeda Research and Development Co. Ltd., priority 2018, dated 2025).

Legend:
Assay type in all cases: cell-based
A2185 and A2352 cells = assay: Viability assay (methylene blue), two BRAF melanoma cells; settings: for viability at 10 µM / cell viability (percentage of DMSO control): active below 40%, moderate below 80%, not active above 80%; for viability at 10 µM: read-out: cell viability (percentage of DMSO control); for activity in SAR summary of FIGS. 10A-10C (cell viability): comparison with Compound Z2 or named analog; for cell viability at lower concentration: 3 μM; for cell viability, dose response: 0.1-10 μM
Procedure: FIGS. 10A, 10B and 10C present data from screening the 20 analogs of Compound Z2 (“C-compounds”) showing three particularly active anti-proliferative compounds. […] A2185 and A2352 cells were grown in 1% FCS containing DMSO (0.1%), EPE peptide, Compound Z56, Compound Z2 or C-compounds (10 μM), for 72 hours. Compounds were categorized according to activity: (1) active, below 40%; (2) moderate activity, below 80%; (3) not active, above 80%. […] A2185 and A2352 cells were grown in 1% FCS containing DMSO (0.1%), EPE peptide (10 μM), compounds Z56, Z2 or selected C-compounds (3 μM), for 72 hours. Empty squares/circles represent individual data points of proliferation. Full squares/circles indicate average proliferation of 2 independent experiments in triplicate±SE. Bold horizontal line defines arbitrary activity threshold of activity below 40%. FIG. 10C presents dose response curves of active C-compounds compounds. A2185 and A2352 were grown in 1% FCS media containing DMSO (0.1%), EPE peptide, Z56, Z2 (10 μM) or compounds C17, C22 and C23 (0.1-10 μM), for 72 hours. […] Cell viability was measured by staining with methylene blue. Data presented as percentage of DMSO control. Bar graphs represent average of 2 independent experiments done in triplicates ±SE.
FIG. 13 presents a graph showing the effect of analogs of Compound C17 (“D-compounds”) on cell viability at a concentration of 10 μM. A2185 and A2352 cells were grown in 1% FCS media containing DMSO (0.1%) EPE peptide (10 μM), Compounds Z56, Z2, C17 (10 μM) as controls, and D-Compounds (10 μM), for 72 hours. Viable cells were measured by staining with methylene blue. Bar graphs represent average of 2 independent experiments done in triplicates. Data presented as percentage of DMSO proliferation ±standard error.
FIG. 14 presents a graph showing the effect of analogs of Compound C17 (“D-compounds”) on cell viability at a concentration of 1 μM. A2185 and A2352 cells were grown in 1% FCS media containing DMSO (0.1%), EPE peptide (10 μM), Compounds Z56, Z2 and C17 (1 and 10 μM) as controls, and D-compounds (1 μM), for 72 hours. Viable cells were measured by staining with methylene blue. Bar graphs represent average of 2 independent experiments done in triplicates. Data presented as percentage of DMSO proliferation ±standard error.
(§1) Cells were seeded at low confluence into 24, 48 or 96-well plates in complete medium. After 24 hours, medium was replaced by 1% FCS (fetal calf serum) containing appropriate treatments. Fresh medium containing the same agents was replaced every day. After 72 or 96 hours of treatment, cells were fixed with 4% formaldehyde overnight at 23° C., washed once with 0.1 M borate buffer (pH 8.5) for 10 minutes, and stained with of 1% methylene blue in 0.1 M borate buffer (pH 8.5) for 30 minutes. Excess stain was washed out with distilled water. Color was extracted by adding 0.1 M HCl (3 hours, 23° C.), and absorbance measured at 595 nm in an ELISA reader. For time course experiments, attached cells were fixed and measured at 0, 24, 48, 72 and 96 hours. For dose-response experiments, cells were treated with indicated concentrations of reagent, fixed and stained after 72 hours as above.
The ability of the selected compounds to reduce cell viability of two BRAF melanoma cells (A2185 and A2352) was evaluated. Initially, all compounds were assayed at a relatively high concentration of 10 μM.

[1] = system: ERK1/2 nuclear translocation; assay: Determination of ERK1/2 localization by fluorescence microscopy after TPA stimulation; settings: 10 μM, 2 hours; TPA 100 nM, 15 minutes; A2185 and A2352 cells
Procedure: Determination of Protein Localization by Fluorescence Microscopy:
Indicated cells were seeded on coverslips (coated with 0.001% w/v poly-L-lysine or not, depending on the cell line) at 50% confluency. After the indicated treatment, cells were fixed in 4% paraformaldehyde/PBS for 20 minutes on an ice surface, permeabilized with 0.1% Triton X-100/PBS for 5 minutes at 23° C., then blocked in 2% BSA/PBS for 30 minutes at 23° C. The fixed cells were sequentially incubated with appropriate antibodies (in 2% BSA/PBS, 1.5 hour), washed 3 times with PBS^−/−, and followed by incubation with either Cy-2-conjugated or rhodamine-conjugated secondary antibodies (1:200) and with DAPI ([…]; 1:100) in 2% BSA/PBS for 45 minutes. Slides were analyzed and photographed by a fluorescence microscope (Olympus BX51, ×40). Background correction, and contrast adjustment of raw data images were performed using Photoshop (Adobe, CA, USA).
The effect of Z56 was compared with that of the inhibitory effect of EPE peptide on nuclear translocation of ERK1/2.
The effects of the compounds on ERK1/2 nuclear translocation were evaluated in three cell lines (HeLa cells and two melanoma cell lines, A2185 and A2352), by treating the cells with each compound for two hours, and determining nuclear translocation using fluorescent anti-ERK antibodies, according to procedures described hereinabove.

[2] = system: Panc-1, AsPC-1, CFPAC-1, MIA PaCa-2, Capan-1, Capan-2 and BxPC-3 pancreatic cancer cells; assay: Viability assay (methylene blue), pancreatic cancer cell lines
Procedure: FIGS. 6A and 6B present data showing that Compound Z56 prevents proliferation of pancreatic cancer cells. […] Panc-1, AsPC-1, CFPAC-1, Mia PaCa-2, Capan-1, Capan-2 (Ras-transformed) and BxPC-3 (Ras-wild type) pancreatic cancer cells were treated with either EPE peptide (10 μM; middle bars) or Z56 (3 μM; right bars) or DMSO control (0.1%; left bars) in 1% FCS for 72 hours. […] Panc-1, AsPC-1, BxPC-3 and Mia PaCa-2 cells grown in 1% FCS medium containing either EPE peptide (10 μM), 56 (3 μM), PLX4032 (1 μM), PD184352 (5 μM) or DMSO control (0.1%). The graphs present the kinetics of cell proliferation at the indicated times after the treatment started. Quantification of all viable cells was done by methylene blue and repeated 3 times in triplicates. All results presented as a fold change of the initial cell number and represent averages ±SE.
as §1
Activating mutations in Ras are found in more than 95% of pancreatic cancers where signaling through both Raf and Akt pathway drives cancer progression [Campbell et al., Cancer Res 2007, 67:2098-2106]. However, no effective treatments that target this mutant protein have reached the clinic to date, and pancreatic ductal adenocarcinoma remains an almost universally fatal disease [Bryant et al., Trends Biochem Sci 2014, 39:91-100]. Therefore, treating these pancreatic cancer cells downstream of Ras, without overactivating the Akt pathway, should be at least partially beneficial. The effect of Compound Z56 (and EPE peptide) on cell viability of Ras-transformed (and Ras-wild type) pancreatic cancer cells was determined, using a variety of cell lines.
The effects of Compound Z56 on the viability of pancreatic cancer cell lines at various times after treatment was compared with those of PLX4032 (a B-Raf inhibitor) and PD184352 (a MEK1/2 inhibitor).

Compound	activity in SAR summary of FIGS. 10A-10C (cell viability) (A2185 and A2352 cells)	cell viability (percentage of DMSO control) (A2185 and A2352 cells; 10 μM, 72 hours, 1% FCS)	also measured
CCOC(=O)c1ccc(NC2C=CS(=O)(=O)C2)cc1 (stereo not drawn) [Compound C1]	lower activity (relative to Compound Z2)		viability at 10 µM (A2185 and A2352 cells; 10 μM, 72 hours, 1% FCS): < 40%
O=C(NC1C=CS(=O)(=O)C1)c1ccccc1 (stereo not drawn) [Compound C2]	less active		viability at 10 µM (A2185 and A2352 cells; 10 μM, 72 hours, 1% FCS): < 80%
O=C(CCc1ccccc1)OC1C=CS(=O)(=O)C1 (stereo not drawn) [Compound C3]			viability at 10 µM (A2185 and A2352 cells; 10 μM, 72 hours, 1% FCS): < 80%
O=S1(=O)C=CC(O)C1 (stereo not drawn) [Compound C4]		did not exhibit significant activity	
O=S1(=O)CCC(Oc2ccccc2)C1 (stereo not drawn) [Compound C5]			viability at 10 µM (A2185 and A2352 cells; 10 μM, 72 hours, 1% FCS): < 80%
O=S1(=O)C=CC2ON=C(c3cc(Cl)cc(Cl)c3)C21 (stereo not drawn) [Compound C6]	inactive	did not exhibit significant activity	
O=S1(=O)CCC(OCc2ccccc2)C1 (stereo not drawn) [Compound C8]	less active	did not exhibit significant activity	
Cc1ccc(C(=O)OC2CCS(=O)(=O)C2)cc1 (stereo not drawn) [Compound C11]	inactive	did not exhibit significant activity	
O=C(Nc1ccccc1)OC1C=CS(=O)(=O)C1 (stereo not drawn) [Compound C12]	less active	did not exhibit significant activity	
CC(C)OC(=O)c1ccc(NC(=O)CC2C=CS(=O)(=O)C2)cc1 (stereo not drawn) [Compound C14]	lower activity (relative to Compound Z2)	did not exhibit significant activity	
O=C(OC1CCCS(=O)(=O)C1)c1ccc(F)cc1 (stereo not drawn) [Compound C15]	inactive	did not exhibit significant activity	
O=C(OC1CCS(=O)(=O)C1)c1ccnc(OCc2ccccc2)c1 (stereo not drawn) [Compound C16]		did not exhibit significant activity	
CS(=O)(=O)CCOC(=O)c1cccc(Br)c1 [Compound C19]	inactive	did not exhibit significant activity	
Cc1ccccc1OC1CCS(=O)(=O)C1 (stereo not drawn) [Compound C20]	lower activity (relative to Compound Z2)	did not exhibit significant activity	
Cc1ccc(OC2CCS(=O)(=O)C2)cc1 (stereo not drawn) [Compound C21]	lower activity (relative to Compound Z2)	did not exhibit significant activity	
O=C(OC1CS(=O)(=O)CC1Br)c1ccccc1 (stereo not drawn) [Compound C22]	far more active than Compound C6		nuclear accumulation of ERK1/2 upon TPA stimulation [1]: inhibited; cell viability at lower concentration (A2185 and A2352 cells; 72 hours, 1% FCS): at least as potent as Compound Z2; viability at 10 µM (A2185 and A2352 cells; 10 μM, 72 hours, 1% FCS): < 40%; cell viability, dose response (A2185 and A2352 cells; 72 hours, 1% FCS): dose dependent manner
O=S1(=O)C=CC2ON=C(c3c(Cl)cccc3Cl)C21 (stereo not drawn) [Compound C23]			nuclear accumulation of ERK1/2 upon TPA stimulation [1]: inhibited; cell viability at lower concentration (A2185 and A2352 cells; 72 hours, 1% FCS): at least as potent as Compound Z2; viability at 10 µM (A2185 and A2352 cells; 10 μM, 72 hours, 1% FCS): < 40%; cell viability, dose response (A2185 and A2352 cells; 72 hours, 1% FCS): dose dependent manner
O=C(OC1CCCS(=O)(=O)C1)c1ccccc1F (stereo not drawn) [Compound C31]	inactive	did not exhibit significant activity	
Cn1ccc2c(C(=O)OC3CCS(=O)(=O)C3)cccc21 (stereo not drawn) [Compound C32]		did not exhibit significant activity	
O=S1(=O)C=CC2ON=C(c3cccnc3)C21 (stereo not drawn) [Compound D13]			anti-viability activity (A2185 and A2352 cells; 10 μM, 72 hours, 1% FCS): higher activity than did Compound D7
O=C(NOCC1CC1)c1ccc(F)c(F)c1Nc1ccc(I)cc1Cl [PD184352]			viability, time course ([2]; 5 μM, all tested cell lines (Panc-1, AsPC-1, BxPC-3, Mia PaCa-2)): reduced the viability
CCCS(=O)(=O)Nc1ccc(F)c(C(=O)c2c[nH]c3ncc(-c4ccc(Cl)cc4)cc23)c1F [PLX4032]			proliferation, time course ([2]; 1 μM, Ras-mutated AsPC-1 cells): to some extent; viability, time course ([2]; 1 μM, other Ras-transformed pancreatic cancer cells (Panc-1, Mia PaCa-2)): not affecting the viability
